`O=C(N[C@H]1CCCC[C@@H]1C(=O)Nc1ccc(Cl)cn1)c1ccc(-n2ccccc2=O)cc1` [Example 1]: the melting point lay in the range of 301 to 303 °C.
